Results: patent US12533417B2, “L-DOPA and/or DOPA decarboxylse inhibitors conjugated to sugar for the treatment of dopamine-responsive disorders” (B. G. Negev Technologies and Applications Ltd., at …, priority 2018, dated 2026)
Blank lines part the entries; values can stand above or below the molecule they belong to.

Key:
[1] = Pharmacokinetic of L-DOPA following intravenous administration of L-DOPA and L-DOPAM-2 to mice; format: in vivo; details: for L-DOPA in the plasma: equivalent to 80 mg/kg L-DOPA, 4 and 8 hours after injection, no DOPA decarboxylase inhibitor
Experimental: In order to analyze the stability of DOPAM-2 in vivo, mice were injected intravenously with either L-DOPAM-2 or L-DOPA, where in either case, an equimolar dose of L-DOPA was administered (equivalent to 80 mg/kg L-DOPA). Mice were sacrificed 30, 60, 120, 240, and 480 minutes after the injection of the tested drug, blood was collected and plasma obtained by centrifugation. L-DOPA concentration was determined by LC-MS. 3 mice were tested per each time point, and each point on the graph represents mean±SEM.

[2] = Stability of L-DOPAM in serum, LC-MS peak areas (Example 4); format: in vitro ADME, human; details: for Area L-DOPA (LC-MS peak area) / Area L-DOPAM (LC-MS peak area) / Area Mannitol (LC-MS peak area): L-DOPAM 2 mg/ml in serum, 36° C.
Experimental: (§1) The stability of one molecule of L-DOPA and one Mannitol (L-DOPAM-1, M.W. 361) in serum was evaluated according to the following procedure: • 1. A solution of 2 mg L-DOPAM in lml of serum was prepared; • 2. A 200 μl aliquot was immediately withdrawn from that solution; • 3. 180 μl of TCA (trichloroacetic acid) 0.6N solution was added; • 4. The obtained mixture was centrifuged (5,000 rpm, 15 min., 40° C.); • 5. The supernatant was filtrated through 0.22 μm filter; • 6. The filtrate was diluted 20 times and injected into Liquid chromatography-mass spectrometry (LC-MS) (column: LUNA 3u C18 (2) 100A; 150×1.0 mm). The eluents were A=Acetonitrile, B=H2O+0.1% Acetic Acid. The following LC gradient was used: […]
The L-DOPAM solution in serum was stored at 36° C. Steps 2-6 were repeated after 2, 4, 23 and 46.5 hours.
The areas of the L-DOPAM, L-DOPA and Mannitol peaks were determined by extraction of only the ions of interest (FIGS. 3-7). The L-DOPA metabolite dopamine was not detected.
In order to semi-quantitatively determine the stability of L-DOPAM, the ratio of the peak areas of L-DOPA versus L-DOPAM and Mannitol versus L-DOPAM was calculated. An increase of the ratio of L-DOPA and Mannitol over time indicates the breakdown of L-DOPAM in serum.

[3] = Release of L-DOPA from L-DOPAM-1 and L-DOPAM-4 in human serum in vitro (Example 5); format: in vitro ADME; details: 37° C., L-DOPA concentration by LC-MS (FIG. 13)
Experimental: as §1
The stability of one molecule of L-DOPA and one of mannitol (L-DOPAM-1), and of four molecules of L-DOPA and one of mannitol (L-DOPAM-4) in serum was evaluated by the method disclosed in Example 4. L-DOPAM-1 and L-DOPAM-4 were added into human serum and incubated at 37° C. Samples were taken at various times after the addition of the drugs to the serum and L-DOPA concentration was determined by LC-MS.

[4] = L-DOPA concentration in human serum after adding DOPAM, HPLC-MS with internal standard; format: in vitro ADME
Experimental: HPLC-MS area under the curve were examined after addition of various L-DOPA concentrations to serum (FIG. 10). […] DOPAM was added to human serum in vitro, and L-DOPA concentrations in serum at various timepoints were determined by HPLC-MS and quantified using an internal standard. DOPAM released L-DOPA continuously over at least 24 hours (FIG. 12). The concentration of L-DOPA in serum increased in a linear fashion during the first 6 hours after adding DOPAM to the serum, after which L-DOPA concentration continued to increase through the final time point examined in this experiment (24 hours after DOPAM addition; FIG. 12).

L-DOPA in the plasma [1]: significant levels of L-DOPA
plasma concentrations of L-DOPA compared with mice injected with L-DOPA ([1]; equivalent to 80 mg/kg L-DOPA, 60, 120, 240, and 480 minutes after injection): higher
SMILES: NC(Cc1ccc(O)c(O)c1)C(=O)OCC(OC(=O)C(N)Cc1ccc(O)c(O)c1)C(O)C(O)C(O)CO (centres unmarked) [DOPAM-2]

L-DOPAM detection in serum ([2]; 46 h after exposure of L-DOPAM to serum): still detected
Area L-DOPA (LC-MS peak area) ([2]; time 0 h): 1019288083
Area L-DOPAM (LC-MS peak area) ([2]; time 0 h): 4065363001
Area Mannitol (LC-MS peak area) ([2]; time 0 h): 60908307
Area L-DOPA (LC-MS peak area) ([2]; time 2 h): 2345301782
Area L-DOPAM (LC-MS peak area) ([2]; time 2 h): 3292402130
Area Mannitol (LC-MS peak area) ([2]; time 2 h): 65437168
Area L-DOPA (LC-MS peak area) ([2]; time 4 h): 2632498093
Area L-DOPAM (LC-MS peak area) ([2]; time 4 h): 2146859775
Area Mannitol (LC-MS peak area) ([2]; time 4 h): 97930402
Area L-DOPA (LC-MS peak area) ([2]; time 23 h): 1539342894
Area L-DOPAM (LC-MS peak area) ([2]; time 23 h): 498391022
Area Mannitol (LC-MS peak area) ([2]; time 23 h): 73274763
Area L-DOPA (LC-MS peak area) ([2]; time 46.5 h): 26308871
Area L-DOPAM (LC-MS peak area) ([2]; time 46.5 h): 460814075
Area Mannitol (LC-MS peak area) ([2]; time 46.5 h): 83932712
Mannitol levels ([2]; L-DOPAM in serum (FIG. 9)): increased over time
L-DOPA metabolite dopamine detected ([2]; L-DOPAM in serum, 0-46.5 h, LC-MS): not detected
Ratio L-DOPA/L-DOPAM (peak areas) ([2]; L-DOPAM in serum, time 0 h): 0.251
Ratio Mannitol/L-DOPAM (peak areas) ([2]; L-DOPAM in serum, time 0 h): 0.015
Ratio L-DOPA/L-DOPAM (peak areas) ([2]; L-DOPAM in serum, time 2 h): 0.712
Ratio Mannitol/L-DOPAM (peak areas) ([2]; L-DOPAM in serum, time 2 h): 0.020
Ratio L-DOPA/L-DOPAM (peak areas) ([2]; L-DOPAM in serum, time 4 h): 1.226
Ratio Mannitol/L-DOPAM (peak areas) ([2]; L-DOPAM in serum, time 4 h): 0.046
Ratio L-DOPA/L-DOPAM (peak areas) ([2]; L-DOPAM in serum, time 23 h): 3.089
Ratio Mannitol/L-DOPAM (peak areas) ([2]; L-DOPAM in serum, time 23 h): 0.147
Ratio L-DOPA/L-DOPAM (peak areas) ([2]; L-DOPAM in serum, time 46.5 h): 0.057
Ratio Mannitol/L-DOPAM (peak areas) ([2]; L-DOPAM in serum, time 46.5 h): 0.182
time up to which L-DOPA levels increased ([2]; L-DOPAM in serum, sharp decrease at the 46 h time point (FIG. 8)): 23 h
course of levels after the increase [3]: gradual decrease at 24 and 48 hours
time up to which levels increased [3]: 8 h
time over which L-DOPA was released continuously ([4]; DOPAM added to human serum in vitro, 37° C. (FIG. 12)): at least 24 hours
period of linear increase of L-DOPA concentration in serum ([4]; after adding DOPAM to human serum (FIG. 12)): 6 h
time L-DOPA present in serum [4]: at least 24 hours
SMILES: NC(Cc1ccc(O)c(O)c1)C(=O)OC(CO)C(O)C(O)C(O)CO [L-DOPAM-1]

time up to which levels increased [3]: 24 h
time up to which levels increased linearly [3]: 5 h
SMILES: NC(Cc1ccc(O)c(O)c1)C(=O)OCC(OC(=O)C(N)Cc1ccc(O)c(O)c1)C(O)C(O)C(COC(=O)C(N)Cc1ccc(O)c(O)c1)OC(=O)C(N)Cc1ccc(O)c(O)c1 [L-DOPAM-4]
course of levels after the increase [3]: decreased slightly through the final time point examined after 72 hours

L-DOPA in the plasma [1]: no L-DOPA was detected
time L-DOPA present in serum [4]: about 2 hours
SMILES: N[C@@H](Cc1ccc(O)c(O)c1)C(=O)O [L-DOPA]
